Like-named read-outs stand apart in the source and are kept apart here. Ends that are not written are not given here.

Data on nine compounds can be found in article PMC12904036, “Mechanism‐Driven Screening of Membrane‐Targeting and Pore‐Forming Antimicrobial Peptides” (Advanced Science, 2025).

Series [1] deals with Enterococcus faecalis ATCC 29212. The series is classed as cell-based. As to conditions: ATCC 29212, 20 h. As to the method: (§1) The minimal inhibitory concentration (MIC) of all screened peptides were determined by the microbroth dilution method. Bacterial strains included four Gram‐negative strains (Acinetobacter baumanii ATCC 17978, Acinetobacter baumanii ATCC 19606, Escherichia coli ATCC 25922, Escherichia coli DH5 α ) and seven Gram‐positive strains (Staphylococcus aureus ATCC 25923, Staphylococcus aureus ATCC 6538, Bacillus subtilis ATCC 6633, Enterococcus faecalis ATCC 29212, Micrococcus luteus CMCC(B) 28001, Staphylococcus capitis ATCC 27842, Staphylococcus hominis ATCC 27844). Bacteria were incubated overnight at 37 °C and diluted to 5 × 10^5 cfu·mL^−1. Then 99 µL bacterial suspension was added into each well of a 96‐well plate. Peptides were dissolved in cation adjusted Mueller‐Hinton (CAMHB) medium at an initial concentration of 1 mg·mL^−1 and then diluted in twofold gradient concentrations, ranging from 0.125 to 128 µg·mL^−1 with 1 µL in each well. The plate was placed in incubator for 20 h at 37 °C. The lowest concentration of peptide causing no observed bacteria grow was its MIC.

For series [2], the system named is Acinetobacter baumanii ATCC 19606. The series is classed as cell-based. As to conditions: ATCC 19606, 20 h. As to the method:
as §1

Series [3] relates to Bacillus subtilis ATCC 6633. The series is classed as cell-based. As to conditions: ATCC 6633, 20 h. The protocol: as §1
The test system of series [4] is Micrococcus luteus CMCC(B) 28001. The series is classed as cell-based. The settings on record: CMCC(B) 28001, 20 h. The protocol:
as §1

For series [5], the system named is Staphylococcus hominis ATCC 27844. The series is classed as cell-based. As to conditions: ATCC 27844, 20 h. As to the method: as §1
The test system of series [6] is Staphylococcus capitis ATCC 27842. The series is classed as cell-based. As to conditions: ATCC 27842, 20 h. As to the method:
as §1

The conditions of series [7]: synthesis report, ref ChinaPeptides Co., Ltd. quality reports, Figure S7, cited from earlier work.
Series [8] has as its system HEK293T cells. The series is described as follows: Cytotoxicity, Alamar Blue assay. The series is classed as cell-based. As to the method:
Cytotoxicity was evaluated using the Alamar Blue assay on HEK293T cells. HEK293T cells were cultured in DMEM supplemented with 10% FBS and incubated at 37 °C with 5% CO2. Amphotericin B and staurosporine were used as controls. Peptide solutions were diluted in PBS (pH 7.4) with final concentrations ranging from 1 to 128 µg·mL^−1. The cells were treated with peptides for 72 h. After that, 10 µL Alamar Blue was added into each well. The plate was incubated for 4 hours under dark condition and detected the absorbance at 570 nm. The inhibition rate of cell growth was calculated via (OD570, peptide ‐ OD570, PBS) / (OD570, staurosporine ‐ OD570, PBS). The half maximal cytotoxic concentration (CC50) was fitted with GraphPad Prism. Each test was conducted in triplicate.

Series [9] relates to Staphylococcus aureus ATCC 6538. The series is classed as cell-based. As to conditions: ATCC 6538, 20 h. The protocol:
as §1

Series [10] deals with Escherichia coli ATCC 25922. The series is classed as cell-based. The settings on record: ATCC 25922, 20 h. The protocol:
as §1

Series [11] concerns Escherichia coli DH5α. The series is classed as cell-based. As to conditions: 20 h. The protocol:
as §1

Series [12] concerns Staphylococcus aureus ATCC 25923. The series is classed as cell-based. As to conditions: ATCC 25923, 20 h. As to the method: as §1
Series [13] concerns Acinetobacter baumanii ATCC 17978. The series is classed as cell-based. As to conditions: ATCC 17978, 20 h. The protocol:
as §1

Consider KVKVLIIRKLTRHIAKLKSKK [Peptide 58], for which, in series [1], the “MIC E. faecalis ATCC 29212” value is 128 µg/mL. For the same compound, the “MIC A. baumannii ATCC 19606” value in series [2] turned out to be 128 µg/mL. For the same compound, in [3], the “MIC B. subtilis ATCC 6633” value came to 8 µg/mL. Besides, in series [4], the “MIC M. luteus CMCC(B) 28001” value stood at 8 µg/mL. Besides, the “MIC S. hominis ATCC 27844” value in series [5] worked out at 2 µg/mL. The “MIC S. capitis ATCC 27842” value in [6] worked out at 4 µg/mL. Besides, the Solubility (as a rule, how much of the substance goes into solution per volume) in [7] (in 15%ACN/85%H2O) is 1000 µg/mL.

With AKLVALVNKFIGYLKQNTYC [Peptide 201], the “MIC B. subtilis ATCC 6633” value in series [3] was determined as 32 µg/mL. For the same compound, in series [7] (in 25%ACN/75%H2O), the Solubility is 1000 µg/mL.

Consider `C[C@@H]1[C@H](O)[C@@H](C)/C=C/C=C/C=C/C=C/C=C/C=C/C=C/[C@H](O[C@@H]2O[C@H](C)[C@@H](O)[C@H](N)[C@@H]2O)C[C@@H]2O[C@](O)(C[C@@H](O)C[C@@H](O)[C@H](O)CC[C@@H](O)C[C@@H](O)CC(=O)O[C@H]1C)C[C@H](O)[C@H]2C(=O)O` [Amphotericin B], for which the “Cytotoxicity CC50 HEK293T” value in [8] was 67.06 µg/mL.

In the case of KLAKLLKLLLWAQNELDQKK [Peptide 623], in series [9], the “MIC S. aureus ATCC 6538” value was 32 µg/mL. Moreover, the “MIC E. coli ATCC 25922” value in series [10] amounted to 128 µg/mL. In series [2], the “MIC A. baumannii ATCC 19606” value was 32 µg/mL. Moreover, the “MIC B. subtilis ATCC 6633” value in [3] turned out to be 8 µg/mL. Besides, in [11], the “MIC E. coli DH5α” value was 128 µg/mL. The “MIC M. luteus CMCC(B) 28001” value in series [4] worked out at 64 µg/mL. Besides, the “MIC S. aureus ATCC 25923” value in series [12] was found to be 128 µg/mL. Further, in series [13], the “MIC A. baumannii ATCC 17978” value stood at 32 µg/mL. The “MIC S. hominis ATCC 27844” value in [5] stood at 16 µg/mL. For the same compound, the “MIC S. capitis ATCC 27842” value in series [6] came out at 64 µg/mL. Further, the Solubility in series [7] (in 15%ACN/85%H2O) is 1000 µg/mL.

As to GFKSKLEQISGICRPLFAAMWK [Peptide 68], in series [3], the “MIC B. subtilis ATCC 6633” value amounted to 64 µg/mL. The “MIC M. luteus CMCC(B) 28001” value in series [4] stood at 128 µg/mL. The “MIC S. hominis ATCC 27844” value in [5] was 32 µg/mL. Further, in [6], the “MIC S. capitis ATCC 27842” value amounted to 16 µg/mL. In series [7] (in 25%ACN/75%H2O), the Solubility was 1000 µg/mL. Further, the “Cytotoxicity CC50 HEK293T” value in [8] was more than 128 µg/mL.

With `CN[C@@H]1C[C@H]2O[C@@](C)([C@@H]1OC)n1c3ccccc3c3c4c(c5c6ccccc6n2c5c31)C(=O)NC4` [Staurospotine, Staurosporine], in series [8] (HEK293T, Alamar Blue, 72 h treatment, 1 to 128 µg/mL, absorbance 570 nm, triplicate), the “Cytotoxicity CC50 HEK293T” value amounted to 0.26 µg/mL.

Turning to IYKILQLFHKRFKKGFFG [Peptide 1304], the “MIC E. faecalis ATCC 29212” value in [1] worked out at 128 µg/mL. Besides, the “MIC S. aureus ATCC 6538” value in series [9] is 16 µg/mL. Further, in [10], the “MIC E. coli ATCC 25922” value amounted to 64 µg/mL. For the same compound, in series [2], the “MIC A. baumannii ATCC 19606” value stood at 16 µg/mL. The “MIC B. subtilis ATCC 6633” value in series [3] amounted to 4 µg/mL. Also, the “MIC E. coli DH5α” value in series [11] came to 32 µg/mL. Further, the “MIC M. luteus CMCC(B) 28001” value in [4] turned out to be 16 µg/mL. Besides, the “MIC S. aureus ATCC 25923” value in series [12] came out at 128 µg/mL. Further, the “MIC A. baumannii ATCC 17978” value in series [13] stood at 16 µg/mL. Besides, the “MIC S. hominis ATCC 27844” value in series [5] came to 4 µg/mL. In series [6], the “MIC S. capitis ATCC 27842” value came to 4 µg/mL. In series [7] (in 15%ACN/85%H2O), the Solubility was 1000 µg/mL.

Regarding “KKIASIIYAHVKALRARKILDNLKRLAANRP [Peptide 615]”, the “MIC E. coli ATCC 25922” value in series [10] was 64 µg/mL. Moreover, the “MIC A. baumannii ATCC 19606” value in series [2] worked out at 16 µg/mL. For the same compound, the “MIC B. subtilis ATCC 6633” value in [3] is 16 µg/mL. Also, the “MIC E. coli DH5α” value in series [11] was 8 µg/mL. In addition, the “MIC M. luteus CMCC(B) 28001” value in series [4] stood at 64 µg/mL. For the same compound, in series [13], the “MIC A. baumannii ATCC 17978” value came to 32 µg/mL. Also, in [5], the “MIC S. hominis ATCC 27844” value was determined as 8 µg/mL. Moreover, the “MIC S. capitis ATCC 27842” value in series [6] was 16 µg/mL. For the same compound, in series [7] (in 15%ACN/85%H2O), the Solubility was 1000 µg/mL.

On to GPIHRLINPFFNLLQGIFTN [Peptide 98], for which the “MIC B. subtilis ATCC 6633” value in [3] was determined as 32 µg/mL. Besides, in [4], the “MIC M. luteus CMCC(B) 28001” value came out at 128 µg/mL. Besides, the Solubility in [7] (in 25%ACN/75%H2O) is 1000 µg/mL.
